Data taken from patent publication US20240368168A1, “SARM1 ENZYME ACTIVITY INHIBITOR AND APPLICATION THEREOF” (ARTIVILA BIOPHARMA, priority 2021, published 2024).
Where a name gives a salt, the structure may show the parent alone.

Experiments:
[1] = molecular target: T1, SARM1 protein in iSARM1 (HEK293) cells (Homo sapiens, UniProt Q6SZW1); test: Inhibitory activity in inducible SARM1 overexpressing cell line, intracellular cADPR level; format: cell-based; conditions: activator CZ-48 100 μM, cADPR content
T1 construct: The full-length SARM1 was synthesized into the pUC57 plasmid by WZ Biosciences Inc., and PCR was performed using pUC57-SARM1 as a DNA template
T1 sequence (Q6SZW1 28-724): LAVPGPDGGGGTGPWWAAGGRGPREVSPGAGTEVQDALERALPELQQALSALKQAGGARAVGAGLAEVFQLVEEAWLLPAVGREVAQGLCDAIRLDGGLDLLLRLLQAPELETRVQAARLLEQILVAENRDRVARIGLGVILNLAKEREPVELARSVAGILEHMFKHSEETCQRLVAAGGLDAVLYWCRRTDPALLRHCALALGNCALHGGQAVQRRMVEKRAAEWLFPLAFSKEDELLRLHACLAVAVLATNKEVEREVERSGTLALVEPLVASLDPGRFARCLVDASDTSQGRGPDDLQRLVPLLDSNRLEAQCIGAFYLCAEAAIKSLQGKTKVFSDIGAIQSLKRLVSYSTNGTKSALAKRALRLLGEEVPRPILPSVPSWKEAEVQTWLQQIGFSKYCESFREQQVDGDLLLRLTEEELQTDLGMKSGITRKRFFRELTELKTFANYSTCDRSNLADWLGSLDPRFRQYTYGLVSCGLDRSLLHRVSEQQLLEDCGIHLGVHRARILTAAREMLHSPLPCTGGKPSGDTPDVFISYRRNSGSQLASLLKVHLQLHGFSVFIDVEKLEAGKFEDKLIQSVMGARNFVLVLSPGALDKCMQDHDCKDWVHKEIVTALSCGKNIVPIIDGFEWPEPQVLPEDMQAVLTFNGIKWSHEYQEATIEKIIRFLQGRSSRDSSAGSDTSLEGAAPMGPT
Procedure: In this example, the gene sequence of SARM1 was amplified using PCR, and constructed into pInducer20-neo plasmid. pInducer20-SARM1 virus was packaged in a liposome and infected HEK293 to obtain an inducible SARM1-overexpressing cell line, which was labeled as iSARM1 (HEK293). The specific preparation was as follows:
First, a 96-well culture plate was treated with 0.05 mg/ml polylysine for 5 minutes and washed once with PBS. 3×10^4 iSARM1 (HEK293) cells were plated into the 96-well plate and cultured overnight in a 37° C. and 5% incubator. The next day, the cells were added with an inhibitor with a final concentration of 50 μM, incubated in the incubator for 1.5 hours, added with activator CZ-48 with a final concentration of 100 μM, and incubated for 16 hours. Meanwhile, the cells without adding CZ-48 or without adding drug were set as control group. Finally, the intracellular cADPR level was detected to represent the activity of SARM1, and the inhibition rate of SARM1 in cells by 50 μM inhibitor was calculated.
The cADPR measurement was performed as follows. First, the cells were washed once with PBS, and added with 150 μl of pre-cooled 0.6M perchloric acid (PCA) to quickly lyse the cells and precipitate the protein. The PCA supernatant was transferred to a 1.5 ml centrifuge tube. The protein in the culture medium was dissolved again with 100 μl of 1M NaOH. The supernatant was added with 0.5 ml of organic reagent mixture (trioctylamine:chloroform=1:3) to extract PCA from water. After sufficient shaking, the mixture was centrifuged at 12,000 rpm for 10 minutes. The solution was divided into 3 layers: the upper aqueous phase, containing the small molecules of interest; the lower organic phase, in which PCA was dissolved; and a thin protein layer between the upper and lower layers. The upper layer was transferred to a new centrifuge tube, added with 1M Tris-Mg at a ratio of 1:100 (1M Tris (pH 8.0): 1M MgCl2=9:1), added with NADase at a ratio of 1:250, and treated at 37° C. overnight to remove NAD^+ from the mixed solution. After the treatment was completed, the mixed solution was filtered using Millipore's 10 K 96-well filter plate to remove NADase.
The cADPR content in the solution was determined through Cycling analysis method. The specific steps were as follows: 20 μl of the sample to be tested or the cADPR standard was taken and added to a 96-well opaque white plate. Preparation of reaction solution: 9.6 ml of PBS (pH 7.4), 200 μl of ethanol, 150 μl of 1 mg/ml AD, 10 μl of 10 mM FMN, 5 μl of 18 mg/ml Diaphorase, 10 μl of 10 mM Resazurin, and 100 μl of 1M Nam. Half of the reaction solution was divided and added with 0.2 μg/ml cyclase. The reaction solution without adding cyclase was used as control experiment. Each sample was divided into two groups, 3 replicates in each group. The reaction solutions containing or not containing cyclase were added to each group to perform the reaction. The reaction kinetic curve within 30 minutes was recorded (Ex:Em=544/599). The average slope of the reaction was calculated. Conversion was performed according to cADPR standard to obtain the accurate cADPR content. A curve of intracellular cADPR content vs corresponding inhibitor concentration was plotted. The half inhibitory concentration of the inhibitor was calculated.

dN-SARM1 protein = molecular target: T2, dN-SARM1 protein (Homo sapiens, UniProt Q6SZW1); test: In vitro biochemical assay for inhibiting SARM1 enzymatic activity (IC50), PC6 fluorescence method; conditions: 50 μM NAD, 50 μM PC6, 50 μM NMN activator
T2 construct: the N-terminal mitochondrial localization signal peptide of SARM1 was removed
T2 sequence (Q6SZW1 28-724): T1 sequence (Q6SZW1 28-724)
Method in brief: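 dN-SARM1 (0.05 μg/ml, 50 mM Tris-HCl pH 7.5) preincubated 10 min at room temperature with compound in serial dilution from 200 μM. Reaction started with final 50 μM NAD, 50 μM PC6 substrate and 50 μM NMN activator, 30 min at room temperature. PC6 fluorescence (ex 390/em 520 nm) rate gives activity; IC50 derived.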

| EC50 [1] [nM] | IC50 (dN-SARM1 protein) [nM] | Structure (SMILES) |
| --- | --- | --- |
| < 1000 | 1000 to 10000 | Cc1ncsc1-c1ccc(CNC(=O)[C@@H]2C[C@@H](O)CN2C(=O)[C@@H](NC(=O)COCCOCCOCC(=O)N(C)c2ccc3ncc(-c4ccccc4Cl)n3c2)C(C)(C)C)cc1 [Compound 118, (2S,4R)-1-((S)-15-(tert-butyl)-2-(3-(2-chlorophenyl)imidazo[1,2-a]pyridin-6-yl)-3,13-dioxo-5,8,11-trioxa-2,14-diazahexadecane-16-acyl)-4-hydroxy-N-(4-(4-methylthiazol-5-yl)benzyl) pyrrolidin-2-carboxamide] |
| 1000 to 10000 | 1000 to 10000 | CNc1ccc2ncc(-c3ccc(S(N)(=O)=O)cc3)n2c1 [Compound 63, 4-(6-(methylamino)imidazo[1,2-a]pyridin-3-yl)benzenesulfonamide] |
| 1000 to 10000 | 1000 to 10000 | CNc1ccc2ncc(-c3nccc4[nH]ccc34)n2c1 [Compound 183] |
| 1000 to 10000 | 1000 to 10000 | CC(C)(C)OC(=O)N(C/C=C/c1cccc(N)c1)c1ccc2ncc(-c3cccc(NC(=O)C4CCOCC4)c3)n2c1 [Compound 219] |
| 1000 to 10000 | 1000 to 10000 | O=C(Cc1ccc(Cl)cc1)Nc1cccn2c(-c3ccncc3)cnc12 [Compound 234] |
| < 1000 | 1000 to 10000 | CN(C(=O)OC(C)(C)C)c1ccc2ncc(-c3cccc(NC(=O)COCc4ccccc4)c3)n2c1 [Compound 248] |
| 1000 to 10000 | < 1000 | CN(C(=O)OC(C)(C)C)c1ccc2ncc(-c3cccc4c3CC(=O)N4)n2c1 [Compound 260] |
| 1000 to 10000 | 1000 to 10000 | CN(C(=O)OC(C)(C)C)c1ccc2ncc(-c3ccncc3F)n2c1 [Compound 278] |
| 1000 to 10000 | 1000 to 10000 | CN(C(=O)OC(C)(C)C)c1ccc2ncc(-c3ccccc3)n2c1 [Compound 8] |
| 1000 to 10000 | 1000 to 10000 | COc1ccc(-c2cnc3ccc(N(C)C(=O)OC(C)(C)C)cn23)cc1 [Compound 14] |
| < 1000 | < 1000 | CC(C)(C)OC(=O)Nc1ccc2ncc(-c3cccc(NC(=O)COCCOCc4ccccc4)c3)n2c1 [Compound 240] |
| 1000 to 10000 | 1000 to 10000 | CN(C(=O)OC(C)(C)C)c1ccc2ncc(-c3cccc(C(N)=O)c3)n2c1 [Compound 7] |
| 1000 to 10000 | 1000 to 10000 | CNc1ccc2ncc(-c3nn4ccnc4s3)n2c1 [Compound 185] |
| 1000 to 10000 | < 1000 | CN(C(=O)OC(C)(C)C)c1ccc2ncc(-c3cccc(CNC(=O)OC(C)(C)C)c3)n2c1 [Compound 254] |
| < 1000 | < 1000 | CN(C(=O)OC(C)(C)C)c1ccc2ncc(-c3cccc(NC(=O)[C@@H]4CCOC4)c3)n2c1 [Compound 238] |
| 1000 to 10000 | 1000 to 10000 | O=C(Nc1cccc(-c2cnc3ccc(N4CCOCC4)cn23)c1)[C@H]1C[C@H](N2CCOCC2)C1 [Compound 231] |
| 1000 to 10000 | 1000 to 10000 | CNc1ccc2ncc(-c3cccc(OCCOCc4ccccc4)c3)n2c1 [Compound 157] |
| 1000 to 10000 | 1000 to 10000 | CNc1ccc2ncc(-c3cccc(OC)c3)n2c1 [Compound 70] |

| EC50 [1] [nM] | IC50 (dN-SARM1 protein) [nM] | Structure (SMILES) |
| --- | --- | --- |
| 1000 to 10000 | 1000 to 10000 | O=C(Nc1cccc(-c2cnc3ccc(N4CCOCC4)cn23)c1)[C@H]1C[C@@H](N2CCOCC2)C1 [Compound 230] |
| 1000 to 10000 | < 1000 | CN(C(=O)OC(C)(C)C)c1ccc2ncc(-c3ccn4ccnc4c3)n2c1 [Compound 169] |
| 1000 to 10000 | 1000 to 10000 | CN(C(=O)OC(C)(C)C)c1ccc2ncc(-c3cccnc3)n2c1 [Compound 15] |
| < 1000 | 1000 to 10000 | CN(C(=O)OC(C)(C)C)c1ccc2ncc(-c3cccc(NC(=O)C4CCCO4)c3)n2c1 (stereo not drawn) [Compound 245] |
| 1000 to 10000 | 1000 to 10000 | CNc1ccc2ncc(-c3cccs3)n2c1 [Compound 69] |
| 1000 to 10000 | 1000 to 10000 | CNc1ccc2ncc(-c3cccc(C(=O)OC)c3)n2c1 [Compound 273] |
| 1000 to 10000 | 1000 to 10000 | NS(=O)(=O)c1cccc(-c2cnc3ccccn23)c1 [Compound 9] |
| 1000 to 10000 | < 1000 | CNc1ccc2ncc(-c3cccc(NC(=O)C4CCCO4)c3)n2c1 (stereo not drawn) [Compound 236] |
| 1000 to 10000 | < 1000 | CN(C(=O)OC(C)(C)C)c1ccc2ncc(-c3cccc4c3CNC4=O)n2c1 [Compound 256] |
| 1000 to 10000 | 1000 to 10000 | CNc1ccc2ncc(-c3cccc(CN)c3)n2c1 [Compound 274] |
| < 1000 | 1000 to 10000 | CN(C(=O)OC(C)(C)C)c1ccc2ncc(-c3cccc(NC(=O)COCCOCc4ccccc4)c3)n2c1 [Compound 244] |
| < 1000 | < 1000 | CN(C(=O)OC(C)(C)C)c1ccc2ncc(-c3cccc4ncsc34)n2c1 [Compound 167] |
| 1000 to 10000 | < 1000 | COC(=O)c1cccc(-c2cnc3ccc(N(C)C(=O)C(C)(C)C)cn23)c1 [Compound 301] |
| < 1000 | < 1000 | CNc1ccc2ncc(-c3cccc(NC(=O)COCCOCc4ccccc4)c3)n2c1 [Compound 241] |
| 1000 to 10000 | 1000 to 10000 | CNc1ccc2ncc(-c3ccccc3Cl)n2c1 [Compound 68, 3-(2-chlorophenyl)-N-methylimidazo[1,2-a]pyridin-6-amine] |
| < 1000 | < 1000 | CN(C(=O)OC(C)(C)C)c1ccc2ncc(-c3cccc4ncccc34)n2c1 [Compound 262] |
| 1000 to 10000 | < 1000 | CNc1ccc2ncc(-c3cccc(NC(=O)COCCOCC(=O)N[C@H](C(=O)N4C[C@H](O)C[C@H]4C(=O)NCc4ccc(-c5scnc5C)cc4)C(C)(C)C)c3)n2c1 [Compound 114, (2S,4R)-1-((S)-3,3-dimethyl-2-(2-(2-(2-((3-(6-(methylamino)imidazo[1,2-a]pyridin-3-yl)phenyl)amino)-2-oxoethoxy)ethoxy)acetamido)butyryl)-4-hydroxy-N-(4-(4-methylthiazol-5-yl)benzyl)pyrrolidin-2-carboxamide hydrochloride] |
| < 1000 | 1000 to 10000 | CC(C)(C)OC(=O)N(C/C=C/c1cccc(N)c1)c1ccc2ncc(-c3cccc(N)c3)n2c1 [Compound 212, tert-butyl (E)-(3-(3-aminophenyl)allyl)(3-(3-aminophenyl)imidazo[1,2-a]pyridin-6-yl)carbamate] |
